Test systems include SF-295 CNS; NCI/ADR-RES ovarian; CAKI-1 renal; 786-0 renal; K-562 leukemia; OVCAR-4 ovarian; MDA-MB-435; A549 NSCLC; U251 CNS; KM12 colon.
Holding throughout (assay): DTP human tumour cell line panel, 48 h

SMILES strings stand for the structures.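 Five compound concentrations were applied to cells in 96-well plates for 48 hours; endpoints were derived by simple linear interpolation of the resulting dose-response curve. Here, GI50 denotes the concentration required for 50% inhibition of growth. TGI: total growth inhibition.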

Consider `CCOC(=O)c1cc(-c2ccccc2)[nH]c1N/N=C/c1ccc(Cl)cc1`, for which the GI50 in the experiment on SF-295 CNS is above 100 µM; in the experiment with NCI/ADR-RES ovarian, 52.6 µM; in the experiment with CAKI-1 renal it was 30.9 µM; in the experiment with 786-0 renal it was 50.4 µM; in the experiment on K-562 leukemia, 28.4 µM; with OVCAR-4 ovarian, 70.9 µM. For the same compound, the GI50 was above 100 µM in the experiment on MDA-MB-435, 81.5 µM in the experiment on A549 NSCLC, above 100 µM in the experiment with U251 CNS and above 100 µM with KM12 colon. Besides, the TGI in the experiment with SF-295 CNS, in the experiment on NCI/ADR-RES ovarian, with CAKI-1 renal, with 786-0 renal, with K-562 leukemia and in the experiment with OVCAR-4 ovarian was above 100 µM in each case. Besides, the TGI in the experiment on MDA-MB-435, in the experiment with A549 NSCLC, in the experiment on U251 CNS and in the experiment with KM12 colon was above 100 µM in each case.

`CCOC(=O)C#Cc1c(C(=O)OCC)nnn1Cc1ccc([N+](=O)[O-])cc1`: the GI50 in the experiment on SF-295 CNS was 18.9 µM; in the experiment with NCI/ADR-RES ovarian, 5.5 µM; in the experiment on CAKI-1 renal, 1.76 µM; with 786-0 renal, 3.29 µM; in the experiment on K-562 leukemia it was 1.32 µM; with OVCAR-4 ovarian, 2.54 µM. The GI50 in the experiment with MDA-MB-435 was 3.35 µM; with A549 NSCLC it was 20.6 µM; in the experiment with U251 CNS, 8.89 µM; with KM12 colon, 10.2 µM. Besides, the TGI in the experiment on SF-295 CNS turned out to be 38.1 µM; in the experiment with NCI/ADR-RES ovarian, 21.1 µM; in the experiment with CAKI-1 renal, 3.3 µM; with 786-0 renal, 10.8 µM; in the experiment with K-562 leukemia, 10.7 µM; with OVCAR-4 ovarian, 7.14 µM. Also, the concentration for total growth inhibition (TGI) in the experiment with MDA-MB-435 is 12.4 µM; in the experiment on A549 NSCLC, 34.8 µM; in the experiment with U251 CNS, 20.9 µM; with KM12 colon, 24.1 µM.

On to `C=C1C(=O)O[C@H]2[C@H]1CC/C(COC(=O)C(C)c1ccc(CC(C)C)cc1)=C\CC[C@@]1(C)O[C@@H]21` (stereo not given in full), for which the GI50 in the experiment with SF-295 CNS was 2.47 µM; in the experiment on NCI/ADR-RES ovarian, 1.85 µM; in the experiment with CAKI-1 renal, 1.67 µM; in the experiment on 786-0 renal, 0.395 µM; in the experiment with K-562 leukemia, 0.359 µM; in the experiment with OVCAR-4 ovarian, 1.71 µM. Moreover, the GI50 is 1.49 µM with MDA-MB-435, 1.8 µM in the experiment with A549 NSCLC, 1.49 µM in the experiment on U251 CNS and 1.79 µM with KM12 colon. Moreover, the TGI turned out to be 7.39 µM in the experiment on SF-295 CNS; 5.54 µM in the experiment on NCI/ADR-RES ovarian; 3.04 µM with CAKI-1 renal; 1.65 µM in the experiment on 786-0 renal; 1.96 µM in the experiment with K-562 leukemia; 3.35 µM in the experiment with OVCAR-4 ovarian. In addition, the TGI with MDA-MB-435 amounted to 2.92 µM; with A549 NSCLC it was 3.65 µM; in the experiment with U251 CNS, 2.89 µM; in the experiment on KM12 colon, 3.69 µM.

With `C=C(CO)[C@@H]1CC[C@]2(COC3CCCCO3)CC[C@]3(C)[C@H](CC[C@@H]4[C@@]5(C)C=C(C=O)C(=O)C(C)(C)[C@@H]5CC[C@]43C)[C@@H]12` (stereo not given in full), the GI50 in the experiment with SF-295 CNS was 0.506 µM; in the experiment with NCI/ADR-RES ovarian, 0.479 µM; in the experiment with CAKI-1 renal it was 0.245 µM; in the experiment with 786-0 renal, 0.185 µM; with K-562 leukemia, 0.316 µM; in the experiment on OVCAR-4 ovarian, 0.298 µM. In addition, the GI50 was 0.214 µM in the experiment with MDA-MB-435, 0.495 µM with A549 NSCLC, 0.209 µM with U251 CNS and 0.555 µM in the experiment with KM12 colon. The TGI with SF-295 CNS worked out at 1.79 µM; in the experiment with NCI/ADR-RES ovarian, 1.8 µM; with CAKI-1 renal it was 0.7 µM; in the experiment with 786-0 renal, 0.406 µM; in the experiment with K-562 leukemia, 1.28 µM; with OVCAR-4 ovarian, 0.979 µM. Moreover, the TGI with MDA-MB-435 amounted to 0.494 µM; with A549 NSCLC, 1.87 µM; in the experiment on U251 CNS, 0.546 µM; in the experiment with KM12 colon it was 1.94 µM.

In the case of `CN(C)CCNc1c2ccccc2nc2oc3ccccc3c12`, the GI50 with SF-295 CNS was 5.99 µM; in the experiment with NCI/ADR-RES ovarian it was 9 µM; with CAKI-1 renal, 14.5 µM; in the experiment on 786-0 renal it was 5.39 µM; in the experiment with K-562 leukemia, 5.22 µM; in the experiment with OVCAR-4 ovarian, 9.45 µM. Also, the GI50 in the experiment with MDA-MB-435 is 6.9 µM; with A549 NSCLC it was 4.75 µM; in the experiment with U251 CNS, 7.87 µM; in the experiment with KM12 colon it was 6.84 µM. For the same compound, the TGI in the experiment with SF-295 CNS was 24.6 µM; with NCI/ADR-RES ovarian it was above 100 µM; in the experiment with CAKI-1 renal, above 100 µM; with 786-0 renal, 29.2 µM; in the experiment with K-562 leukemia, above 100 µM; in the experiment with OVCAR-4 ovarian, 37.9 µM. For the same compound, the TGI in the experiment on MDA-MB-435 was found to be 23 µM; in the experiment with A549 NSCLC, 36 µM; in the experiment with U251 CNS, 24.7 µM; in the experiment with KM12 colon, 33.9 µM.

As to `OCCNc1nc(Nc2ccc(Cl)c(Cl)c2)nc2ccccc12`, the GI50 in the experiment on SF-295 CNS was 6.1 µM; in the experiment on NCI/ADR-RES ovarian, 4.91 µM; in the experiment with CAKI-1 renal, 4.66 µM; in the experiment with 786-0 renal, 3.04 µM; in the experiment with K-562 leukemia, 3.09 µM; in the experiment on OVCAR-4 ovarian it was 4.64 µM. In addition, the GI50 was 7.1 µM in the experiment with MDA-MB-435, 4.2 µM in the experiment on A549 NSCLC, 3.7 µM in the experiment on U251 CNS and 4.19 µM in the experiment on KM12 colon. In addition, the concentration for total growth inhibition (TGI) with SF-295 CNS was 20.2 µM; in the experiment with NCI/ADR-RES ovarian, 20 µM; with CAKI-1 renal, 18.2 µM; in the experiment with 786-0 renal it was 11 µM; in the experiment with K-562 leukemia it was 10.8 µM; with OVCAR-4 ovarian it was 18.4 µM. The TGI was 20.2 µM in the experiment with MDA-MB-435, 18 µM in the experiment with A549 NSCLC, 15.5 µM in the experiment with U251 CNS and 16.2 µM in the experiment with KM12 colon.

Take `CCCN(CCC)c1ccc(/C=N/NC(=O)c2cccnc2)c(OC)c1`: the GI50 in the experiment on SF-295 CNS is 19 µM; in the experiment with NCI/ADR-RES ovarian it was 24.8 µM; in the experiment with CAKI-1 renal, 21.5 µM; in the experiment on 786-0 renal it was 32.7 µM; in the experiment on K-562 leukemia, 22.2 µM; in the experiment with OVCAR-4 ovarian it was 23.5 µM. For the same compound, the GI50 was 10.3 µM in the experiment on MDA-MB-435, 26.6 µM in the experiment with A549 NSCLC, 23.2 µM in the experiment on U251 CNS and 21.3 µM with KM12 colon. Also, the TGI was 77.8 µM in the experiment on SF-295 CNS; above 100 µM in the experiment on NCI/ADR-RES ovarian; 93.2 µM in the experiment on CAKI-1 renal; above 100 µM with 786-0 renal; above 100 µM in the experiment with K-562 leukemia; 82.8 µM in the experiment on OVCAR-4 ovarian. The TGI in the experiment with MDA-MB-435 was 43 µM; with A549 NSCLC it was above 100 µM; with U251 CNS, above 100 µM; in the experiment with KM12 colon, 68.3 µM.

For `O=C1c2ccccc2-c2c1c1c(O)cccc1n2Cc1ccccn1`, the GI50 with SF-295 CNS was 23.6 µM; with NCI/ADR-RES ovarian it was 43.2 µM; in the experiment with CAKI-1 renal, 20.4 µM; in the experiment on 786-0 renal it was above 100 µM; in the experiment with K-562 leukemia, 18.3 µM; with OVCAR-4 ovarian it was above 100 µM. The GI50 with MDA-MB-435 is 27.4 µM; in the experiment on A549 NSCLC, 45.3 µM; in the experiment with U251 CNS it was 94.4 µM; with KM12 colon, above 100 µM. In addition, the total growth inhibition concentration (TGI) with SF-295 CNS was above 100 µM; in the experiment with NCI/ADR-RES ovarian, above 100 µM; with CAKI-1 renal it was above 100 µM; with 786-0 renal, above 100 µM; with K-562 leukemia, 79 µM; in the experiment on OVCAR-4 ovarian it was above 100 µM. Besides, the TGI with MDA-MB-435, in the experiment on A549 NSCLC, in the experiment on U251 CNS and in the experiment on KM12 colon was above 100 µM throughout.

As to `Fc1cccc(-n2ccc(-c3ccccc3)nc2=S)c1`, the GI50 was 44.1 µM in the experiment on SF-295 CNS; 18.3 µM in the experiment with NCI/ADR-RES ovarian; 4.11 µM with CAKI-1 renal; 21.2 µM in the experiment on 786-0 renal; 43 µM in the experiment on K-562 leukemia; 98.6 µM in the experiment with OVCAR-4 ovarian. Besides, the GI50 was 99.7 µM in the experiment on MDA-MB-435, 31.5 µM in the experiment with A549 NSCLC, 43.2 µM in the experiment with U251 CNS and 18.6 µM with KM12 colon. Further, the TGI in the experiment with SF-295 CNS is above 82.6 µM; in the experiment with NCI/ADR-RES ovarian it was 41.4 µM; in the experiment on CAKI-1 renal, 14.3 µM; in the experiment on 786-0 renal, 44.1 µM; in the experiment on K-562 leukemia, above 100 µM; in the experiment on OVCAR-4 ovarian, above 100 µM. The concentration for total growth inhibition (TGI) with MDA-MB-435 was above 100 µM; in the experiment on A549 NSCLC, above 87.3 µM; in the experiment with U251 CNS, above 100 µM; in the experiment on KM12 colon, 42.8 µM.

In the case of `CC(=O)O[C@H]1[C@@H]2OC(=O)C(CSc3ccccc3)[C@@H]2C[C@H]2O[C@]2(C)CC/C=C(\C)CCC[C@@H]1C` (stereo not given in full), the GI50 with SF-295 CNS was 3.73 µM; with NCI/ADR-RES ovarian, 2.99 µM; in the experiment with CAKI-1 renal it was 1.69 µM; in the experiment with 786-0 renal it was 2.81 µM; with K-562 leukemia, 2.15 µM; in the experiment with OVCAR-4 ovarian, 2.98 µM. In addition, the GI50 in the experiment on MDA-MB-435 is 2.12 µM; in the experiment with A549 NSCLC, 4.34 µM; with U251 CNS, 3.97 µM; with KM12 colon it was 3.58 µM. In addition, the TGI in the experiment with SF-295 CNS is 34.6 µM; with NCI/ADR-RES ovarian, 32 µM; in the experiment with CAKI-1 renal, 6.34 µM; with 786-0 renal, 8.29 µM; in the experiment on K-562 leukemia, above 24.6 µM; in the experiment with OVCAR-4 ovarian it was 10.9 µM. In addition, the TGI worked out at 5.9 µM in the experiment with MDA-MB-435, 21.4 µM in the experiment on A549 NSCLC, 16.5 µM in the experiment on U251 CNS and 14 µM in the experiment with KM12 colon.

For `CC1=C(/C=C/C(C)=C/C=C/C(C)=C/C(=O)O)C(C)(C)CCC1`, the total growth inhibition concentration (TGI) is above 88.6 µM with SF-295 CNS; 70 µM in the experiment on NCI/ADR-RES ovarian; above 93.2 µM in the experiment on CAKI-1 renal; 68.1 µM with 786-0 renal; above 79.9 µM with K-562 leukemia; above 100 µM in the experiment on OVCAR-4 ovarian. The concentration for total growth inhibition (TGI) was above 100 µM in the experiment with MDA-MB-435, above 79.4 µM with A549 NSCLC, 70.7 µM with U251 CNS and 60.2 µM in the experiment with KM12 colon.

The values are drawn from PubChem BioAssay (NCI).
